Experimental data as given in patent US20210106648A1, “SYNERGISTIC COMBINATION OF CHEMOTHERAPY AND PEPTIDE FOR TREATING CANCER” (TOBEBIO Novel Drug Laboratory Co., Ltd., priority 2019, published 2021).
Counter-ions that a name gives are not always drawn. Ends that are not written are not given here.

Experiments:
[1] = test system: AsPC-1 pancreatic cancer cells; type: in vivo, Balb/c nude mice; conditions: allostatine-1 2.5 mg/kg daily s.c.; paclitaxel 8 mg/kg weekly i.p.
[2] = test system: CT26 colon cancer cells; assay: CT26 colon cancer liver metastasis model; type: in vivo, Balb/c mice; conditions: allostatine-1 5 mg/kg daily s.c.; CPT-11 100 mg/kg weekly i.p.

| Molecule | Median survival [1] | median survival days [2] |
| --- | --- | --- |
| CC(=O)O[C@H]1C(=O)[C@@]2(C)[C@H]([C@H](OC(=O)c3ccccc3)[C@]3(O)C[C@H](OC(=O)[C@H](O)[C@@H](NC(=O)c4ccccc4)c4ccccc4)C(C)=C1C3(C)C)[C@]1(OC(C)=O)CO[C@@H]1C[C@@H]2O [Paclitaxel] | 108 days | – |
| HGVSGWGQHGTHG [Allostatine-1, linear 13-amino acid analog peptide of alloferon-1] | 97 days | 30 days |
| CCc1c2c(nc3ccc(OC(=O)N4CCC(N5CCCCC5)CC4)cc13)-c1cc3c(c(=O)n1C2)COC(=O)[C@]3(O)CC [CPT-11, Irinotecan hydrochloride] | – | 35.5 days |
